{"source": "patent US9145375B2", "about": "“Quinazolinone compounds” (PRANA BIOTECHNOLOGY LIMITED, priority 2008, dated 2015)", "key": {"[1]": {"target": "T1, CYP2C9 (Homo sapiens, UniProt P11712)", "T1 construct": "using a specific substrate approach in human liver microsomes; from tissue; host or cells: human liver microsomes", "T1 sequence (P11712 whole entry, canonical isoform)": "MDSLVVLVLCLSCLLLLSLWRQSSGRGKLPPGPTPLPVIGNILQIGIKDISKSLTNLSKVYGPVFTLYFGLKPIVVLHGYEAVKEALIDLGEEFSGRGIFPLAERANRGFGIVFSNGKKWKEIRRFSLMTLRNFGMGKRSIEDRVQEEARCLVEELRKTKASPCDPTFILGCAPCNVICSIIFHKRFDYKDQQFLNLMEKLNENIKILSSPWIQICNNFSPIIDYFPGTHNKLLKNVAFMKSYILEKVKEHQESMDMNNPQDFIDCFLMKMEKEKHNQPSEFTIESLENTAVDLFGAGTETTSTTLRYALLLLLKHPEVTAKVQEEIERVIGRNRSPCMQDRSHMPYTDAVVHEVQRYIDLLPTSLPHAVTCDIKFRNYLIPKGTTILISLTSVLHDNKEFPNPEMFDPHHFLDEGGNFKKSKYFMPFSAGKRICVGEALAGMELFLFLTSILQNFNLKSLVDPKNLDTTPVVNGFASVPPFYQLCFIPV", "assay": "CYP450 isoform inhibition, recombinant enzymes, analysis by LCMS: CYP2C9", "assay_type": "in vitro ADME", "protocol": "CYP450 Isoform Inhibition\nMicrosomes containing individual recombinant human CYP450 enzymes (Supersomes™) were incubated in the presence of a fixed concentration of a probe substrate that forms a fluorescent metabolite upon CYP450-mediated metabolism.\nA known inhibitor of each CYP450 isoform was included in each assay as a positive control and its IC50 was compared to literature values for acceptance of the assay.\nThe inherent fluorescence of the test compound was examined under the specific assay conditions for each isoform before and after the fluorometric assay to identify any compound-specific interference due to the parent compound or metabolic products. If the background fluorescence in these samples increased due to compound-specific interference, then the CYP450 inhibition samples were quantified using LC/MS assay."}, "[2]": {"target": "CYP2E1 (Homo sapiens, UniProt P05181)", "sequence (P05181 whole entry, canonical isoform)": "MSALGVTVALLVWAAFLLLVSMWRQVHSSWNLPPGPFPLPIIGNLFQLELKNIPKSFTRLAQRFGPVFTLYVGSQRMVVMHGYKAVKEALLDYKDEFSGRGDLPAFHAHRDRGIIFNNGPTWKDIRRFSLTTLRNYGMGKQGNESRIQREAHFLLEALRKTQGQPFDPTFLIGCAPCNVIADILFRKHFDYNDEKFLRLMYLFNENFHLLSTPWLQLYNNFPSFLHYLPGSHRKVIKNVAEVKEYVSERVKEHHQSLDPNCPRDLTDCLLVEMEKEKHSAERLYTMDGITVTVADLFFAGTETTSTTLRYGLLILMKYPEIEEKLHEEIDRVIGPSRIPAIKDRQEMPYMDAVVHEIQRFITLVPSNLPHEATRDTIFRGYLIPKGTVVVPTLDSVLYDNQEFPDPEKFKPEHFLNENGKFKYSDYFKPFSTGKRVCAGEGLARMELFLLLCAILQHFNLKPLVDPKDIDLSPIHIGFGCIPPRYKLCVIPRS", "assay": "CYP450 inhibition, specific substrate approach in human liver microsomes: CYP2E1", "assay_type": "in vitro ADME", "set-up": "using a specific substrate approach in human liver microsomes; from tissue; host or cells: human liver microsomes", "protocol": "CYP450 Isoform Inhibition Using a Specific Substrate Approach\nThe present study is a “Tier 2” screen to assess potential enzyme inhibition at a test compound concentration of 20 μM using a specific substrate approach in human liver microsomes.\nThe substrate specific enzyme inhibition study relies on the formation of a metabolite that is mediated by a specific CYP450 isoform using human liver microsomes. In the current study, the following reactions were monitored to assess interactions with specific CYP450 isoforms. A known inhibitor of each isoform was included in each assay as a positive control. The following IC50 values have been reported in the literature using equivalent assay conditions for each CYP450 isoform:\nThe reaction was initiated by the addition of an NADPH-regenerating system and was quenched by the addition of acetonitrile prior to determining the concentration (and apparent rate of formation) of the specific metabolite by LC/MS.\nThe IC50 was deemed to be the concentration at which there was a 50% reduction in the amount of metabolite formed, relative to the maximal extent of formation."}}}
{"smiles": "CNCc1nc2c(O)c(Cl)cc(Cl)c2c(=O)n1C", "note": "[Compound F4161]", "values": [{"measurement": "IC50", "setting": "[1]", "result": "> 40", "unit": "µM"}]}
{"smiles": "CCn1c(CN(C)C)nc2c(O)c(Cl)cc(Cl)c2c1=O.Cl", "note": "[Compound F4268]", "values": [{"measurement": "IC50", "setting": "[2]", "result": "> 20", "unit": "µM"}]}
